Results reported in US20240318160A1 (Wisconsin Alumni Research Foundation, priority 2023, published 2024).

Assays:
Type in all cases: biochemical
[1] = test system: Joinvillea ascendens JaPAL (SEQ ID NO: 28) variant JaPAL^F140H_MUT16 (F140H plus PTAL-type residues at 70, 102, 110, 112, 121, 129, 135, 138, 267, 271, 279 …); assay: TAL and PAL enzyme kinetics; conditions: PAL assay (L-Phe), pH 8.5, 30° C.
Experimental: (§1) To investigate the potential role of these residues in TAL activity, we generated two JaPAL mutant enzymes, one with PTAL-type substitutions in the 8 circle residues and the other with PTAL-type substitutions in both the circle and triangle residues (Table 4) in addition to the F140H mutation (JaPAL^F140H_MUT8 and JaPAL^F140H_MUT16, respectively).
(§2) A mixture containing 100 mM Tris-HCl (pH 8.5), 1% glycerol, and purified enzyme in a total volume of 50 μl was preincubated for 3 min at 30° C. […] The reactions were terminated by addition of 6N acetic acid (10 μl).
(§3) The kinetic parameters of the recombinant enzymes were determined using HPLC. Reaction mixtures containing 100 mM Tris-HCl (pH 8.5), 1% glycerol, and purified enzyme (0.15 μg for PAL assay and 1 μg for TAL assay) in a 50 μl total volume were preincubated for 3 min at 30° C. […] After 10 min and 20 min incubations for PAL and TAL assay, respectively, at 30° C., the reaction was terminated by addition of 6N acetic acid (10 μl). […] The products were quantified using calibration curves generated using authentic standards. Non-linear hyperbolic regression analyses were conducted using the Excel Solver tool to calculate Km and Vmax values.

[2] = test system: Joinvillea ascendens JaPAL (SEQ ID NO: 28) variant JaPAL^F140H_MUT8 (F140H plus PTAL-type residues at 102, 112, 121, 138, 267, 444, 448, 500); assay: TAL and PAL enzyme kinetics
Experimental: as §1, §2, §3

[3] = test system: Joinvillea ascendens JaPAL variant S112I (JaPAL^S112I), SEQ ID NO: 258; assay: TAL and PAL enzyme kinetics; conditions: PAL assay (L-Phe), pH 8.5, 30° C.
Experimental: (§4) To test this hypothesis further, the reciprocal S112I mutation was introduced into the JaPAL^F140H single mutant to generate the JaPAL^F140H_S112I double mutant. For comparison, a single mutant in which the residue corresponding to Ser112 was converted to Ile (i.e., JaPAL^S112I) was generated as well.
as §2, §3

[4] = test system: Joinvillea ascendens JaPAL variant F140H/S112I (JaPAL^F140H_S112I), SEQ ID NO: 145; assay: TAL and PAL enzyme kinetics; conditions: PAL assay (L-Phe), pH 8.5, 30° C.
Experimental: as §4, §2, §3

[5] = test system: Joinvillea ascendens JaPAL^F140H_MUT8 variant I102V; assay: TAL and PAL enzyme kinetics; conditions: PAL assay (L-Phe), pH 8.5, 30° C.
Experimental: (§5) To determine which of the 8 circle residues are essential in the conversion of PAL enzymes to PTAL enzymes (FIG. 3C), we mutated, one by one, each one of these 8 residues back to the PAL type in JaPAL^F140H_MUT8 and determined their effects on catalytic efficiency.
as §2, §3

[6] = test system: Joinvillea ascendens JaPAL^F140H_MUT8 variant S267A; assay: TAL and PAL enzyme kinetics; conditions: PAL assay (L-Phe), pH 8.5, 30° C.
Experimental: as §5, §2, §3

[7] = test system: Joinvillea ascendens JaPAL^F140H_MUT8 variant T444P; assay: TAL and PAL enzyme kinetics; conditions: PAL assay (L-Phe), pH 8.5, 30° C.
Experimental: as §5, §2, §3

[8] = test system: Joinvillea ascendens JaPAL^F140H_MUT8 variant G121A; assay: TAL and PAL enzyme kinetics; conditions: PAL assay (L-Phe), pH 8.5, 30° C.
Experimental: as §5, §2, §3

[9] = test system: Joinvillea ascendens JaPAL^F140H_MUT8 variant V500I; assay: TAL and PAL enzyme kinetics; conditions: PAL assay (L-Phe), pH 8.5, 30° C.
Experimental: as §5, §2, §3

[10] = test system: Joinvillea ascendens JaPAL^F140H_MUT8 variant L138I; assay: TAL and PAL enzyme kinetics; conditions: PAL assay (L-Phe), pH 8.5, 30° C.
Experimental: as §5, §2, §3

[11] = test system: Joinvillea ascendens JaPAL^F140H_MUT8 variant A448S; assay: TAL and PAL enzyme kinetics; conditions: PAL assay (L-Phe), pH 8.5, 30° C.
Experimental: as §5, §2, §3

[12] = test system: Joinvillea ascendens JaPAL^F140H_MUT8 variant I122S (in Table 3; I112S in text); assay: TAL and PAL enzyme kinetics; conditions: PAL assay (L-Phe), pH 8.5, 30° C.
Experimental: as §5, §2, §3

[13] = test system: PAL^F140H mutants (JaPAL^F140H, EmoPAL^F134H, BdPAL^F137H, SbPAL^F135H); assay: TAL and PAL enzyme kinetics, group of enzymes; conditions: PAL activity, on average
Experimental: as §3

[14] = test system: grass PTAL enzymes; assay: TAL and PAL enzyme kinetics, group of enzymes; conditions: PAL activity (L-Phe), range over grass PTAL enzymes
Experimental: as §3

[15] = test system: PTAL^H140F mutants (SbPTAL^H123F, BdPTAL^H123F, SaPTAL-a^H118F, SaPTAL-b^H126F, EmoPTAL^H127F, JaPTAL^H125F); assay: TAL and PAL enzyme kinetics, group of enzymes; conditions: on average
Text: To experimentally test the role of His 140 in the acquisition of TAL activity, we next conducted site-directed mutagenesis on the PAL and PTAL enzymes of grasses and non-grass graminids characterized above and analyzed their effects on TAL activity. For the PAL enzymes, the residue corresponding to Phe 140 was converted to His to generate JaPAL^F140H EmoPAL^F134H, BdPAL^F137H, and SbPAL^F135H. […] For the PTAL enzymes, the residue corresponding to His 140 was converted to Phe to generate SbPTAL^H123F, BdPTAL^H123F, SaPTAL-a^H118F, SaPTAL-b^H126F, EmoPTAL^H127F, and JaPTAL^H125F. […] Thus, unlike in the bacterial TAL enzyme (Watts et al., 2006), other residues besides the His 140 are likely important for the acquisition of strong TAL activity in the PTAL enzymes of grasses and closely-related non-grass graminids.
The kinetic parameters of the recombinant enzymes were determined using HPLC. Reaction mixtures containing 100 mM Tris-HCl (pH 8.5), 1% glycerol, and purified enzyme (0.15 μg for PAL assay and 1 μg for TAL assay) in a 50 μl total volume were preincubated for 3 min at 30° C. PAL and TAL reactions were started by addition of 50 μl substrate solution prepared with 0-4 mM L-Phe and 0-2 mM L-Tyr. After 10 min and 20 min incubations for PAL and TAL assay, respectively, at 30° C., the reaction was terminated by addition of 6N acetic acid (10 μl). […] The products were quantified using calibration curves generated using authentic standards. Non-linear hyperbolic regression analyses were conducted using the Excel Solver tool to calculate Km and Vmax values.

[16] = test system: Streptochaeta angustifolia SaPTAL-a variant H118F (SaPTAL-a^H118F); assay: TAL and PAL enzyme kinetics; conditions: PAL assay (L-Phe), pH 8.5, 30° C.
Experimental: as §2, §3

[17] = PAL assay (L-Phe), pH 8.5, 30° C.

N[C@@H](Cc1ccccc1)C(=O)O [L-Phe, phenylalanine]
Km [1]: 455 ± 4.6 µM | kcat [1]: 0.46 ± 0.01 s⁻¹ | kcat/Km [1]: 1010 ± 0 M⁻¹ s⁻¹ | Km for Phe relative to wild-type JaPTAL ([2]; PAL activity, higher than JaPTAL): 2 fold | Km [2, 17]: 141 ± 6.3 µM | kcat [2, 17]: 0.60 ± 0.01 s⁻¹ | kcat/Km [2, 17]: 4250 ± 220 M⁻¹ s⁻¹ | Km [3]: 2.6 ± 0.5 µM | kcat [3]: 0.21 ± 0.04 s⁻¹ | kcat/Km [3]: 79800 ± 0 M⁻¹ s⁻¹ | Km [4]: 67.3 ± 2.5 µM | kcat [4]: 0.77 ± 0.01 s⁻¹ | kcat/Km [4]: 11460 ± 210 M⁻¹ s⁻¹ | Km [5]: 232 ± 3.5 µM | kcat [5]: 0.74 ± 0.01 s⁻¹ | kcat/Km [5]: 3190 ± 80 M⁻¹ s⁻¹ | Km [6]: 317 ± 6.6 µM | kcat [6]: 0.85 ± 0.04 s⁻¹ | kcat/Km [6]: 2670 ± 60 M⁻¹ s⁻¹ | Km [7]: 192 ± 3.6 µM | kcat [7]: 0.90 ± 0.05 s⁻¹ | kcat/Km [7]: 4700 ± 220 M⁻¹ s⁻¹ | Km [8]: 58.1 ± 3.4 µM | kcat [8]: 0.57 ± 0.02 s⁻¹ | kcat/Km [8]: 9880 ± 310 M⁻¹ s⁻¹ | Km [9]: 151 ± 3.7 µM | kcat [9]: 0.82 ± 0.02 s⁻¹ | kcat/Km [9]: 5450 ± 140 M⁻¹ s⁻¹ | Km [10]: 74.3 ± 1.1 µM | kcat [10]: 0.66 ± 0.01 s⁻¹ | kcat/Km [10]: 8860 ± 10 M⁻¹ s⁻¹ | Km [11]: 168 ± 11.3 µM | kcat [11]: 0.80 ± 0.03 s⁻¹ | kcat/Km [11]: 4790 ± 430 M⁻¹ s⁻¹ | Km [12]: 2290 ± 344 µM | kcat [12]: 0.29 ± 0.04 s⁻¹ | kcat/Km [12]: 310 ± 0 M⁻¹ s⁻¹ | Km toward Phe relative to corresponding wild-type enzymes [13]: 35 fold | Km [14]: 150 to 227 µM | kcat relative to wild type ([15]; PAL activity (Phe)): 0.25 fold | Km toward Phe relative to corresponding wild-type enzymes ([15]; PAL activity): 0.04 fold | Km [16]: 6 ± 0.8 µM
